Experimental data: PubChem BioAssay AID504470 (NMMLSC, 2011)
Activity calls are given as the source filed them.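 The calls were made as follows: active = EC50, the half-effect concentration on GFP expression, at most 33 µM; inactive = the rest.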

Tested on: not listed separately
Assay: TOR pathway RPL19A-GFP reporter modulators – cell-based, KU SAR set 2, kMESF flow cytometry, multiplex, SAR follow-up (AID 504470)
Conditions: S. cerevisiae RPL19A-GFP strain, flow cytometry fluorescence, 3 h; at 100 µM (top of the series)
For CNc1nc(N)c([N+](=O)[O-])c(Nc2cccc(Br)c2)n1, the GFP fluorescence (kMESF) was 24% (inactive).
With CNc1nc(N)c([N+](=O)[O-])c(Nc2ccccc2F)n1 the GFP fluorescence (kMESF) was 24.8% (inactive).
In the case of CNc1nc(NC2CCCCC2)c([N+](=O)[O-])c(N2CCOCC2)n1, the GFP fluorescence (kMESF) is reported as 21.9% (inactive).
In the case of CNc1nc(N)c([N+](=O)[O-])c(Nc2ccccc2Br)n1, the GFP fluorescence (kMESF) is reported as 23.4% (inactive).
With CNc1nc(NC)c([N+](=O)[O-])c(Nc2cccc(Cl)c2)n1 the GFP fluorescence (kMESF) was 23.3% (inactive).
With CNc1nc(N)c([N+](=O)[O-])c(Nc2cccc(Oc3ccccc3)c2)n1 the GFP fluorescence (kMESF) was 23% (inactive).
With CNc1nc(N)c([N+](=O)[O-])c(Nc2cccc(OC)c2)n1 the GFP fluorescence (kMESF) was 22.9% (inactive).
For CCNc1nc(N)c([N+](=O)[O-])c(Nc2cccc(Cl)c2)n1, the GFP fluorescence (kMESF) was 18.9% (inactive).

Same assay, conditions: S. cerevisiae RPL19A-GFP strain, flow cytometry fluorescence, 3 h; at 300 µM (top of the series)
In the case of CNc1nc(N)cc(Oc2cccc(Cl)c2)n1, the GFP fluorescence (kMESF) is reported as 32.2% (inactive).
For COC(=O)c1cccc(-c2cc(Nc3cc(C)[nH]n3)nc(NCc3ccccc3)n2)c1, the GFP fluorescence (kMESF) was 32.9% (inactive).
With Cc1cc(Nc2cc(-c3ccccc3)nc(NCc3ccccc3)n2)n[nH]1 the GFP fluorescence (kMESF) was 31.4% (inactive).
With CCOC(=O)c1c(N)nc(NC)nc1Nc1cccc(F)c1 the GFP fluorescence (kMESF) was 29.8% (inactive).
With Cc1cc(Nc2cc(Nc3ccccc3)nc(NCc3ccccc3)n2)n[nH]1 the GFP fluorescence (kMESF) was 30% (inactive).
With COc1ccccc1-c1cc(Nc2cc(C)[nH]n2)nc(NCc2ccccc2)n1 the GFP fluorescence (kMESF) was 30% (inactive).
In the case of CNc1nc(N)cc(Nc2ccccc2F)n1, the GFP fluorescence (kMESF) is reported as 32% (inactive).
In the case of COc1cccc(-c2cc(Nc3cc(C)[nH]n3)nc(NCc3ccccc3)n2)c1, the GFP fluorescence (kMESF) is reported as 32.4% (inactive).
With O=[N+]([O-])c1c(NC2CCCCC2)nc(NCc2ccccc2)nc1N1CCOCC1 the GFP fluorescence (kMESF) was 29.5% (inactive).

Tested on: S. cerevisiae RPL19A-GFP strain, flow cytometry fluorescence, 3 h
Assay: as above
Conditions: not given
For CNc1nc(N)cc(Nc2cccc(Cl)c2)n1, the EC50 was 69.1 µM (inactive).
With CNc1nc(N)c(C(=O)c2ccc(C)c(C)c2)c(Nc2cccc(Cl)c2)n1 the EC50 was 125 µM (inactive).
In the case of CCNc1nc(NC2CCCCC2)c([N+](=O)[O-])c(N2CCOCC2)n1, the EC50 is reported as 70.5 µM (inactive).
